Assay results reported in patent US9187472B2 (AbbVie Inc., priority 2012, dated 2015).

How the values were obtained:
NAMPT = NAMPT (Homo sapiens, UniProt P43490); experiment: TR-FRET Binding Assay of NAMPT with PRPP; conditions: with 200 μM PRPP and 2.5 mM ATP; 2 nM NAMPT, 2 nM probe, 16 hours equilibration
Procedure, shortened: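 Run in the presence of substrates (200 μM PRPP, 2.5 mM ATP) with final 2 nM NAMPT, 2 nM probe, 1 nM Tb-anti-His antibody and 2% DMSO. Mixtures equilibrated 16 h before TR-FRET measurement so test compounds could be enzymatically modified.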

PC3 cells = experiment: NAMPT Cell Proliferation Assay; format: cell-based; conditions: Homo sapiens, PC-3, 120 h, 5 days incubation, cell viability by Cell Titer Glo
Procedure, shortened: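 Following overnight attachment in RPMI with 10% heat-inactivated FBS, PC3 cells at 500 per well receive compounds spanning 10 μM down to 1×10^−5 μM. Growth is assessed by luminescent viability read after 5 days.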

[1] = biological target: NAMPT (human, recombinant, C-terminally His-tagged) (Homo sapiens, UniProt P43490); experiment: Time-Resolved Fluorescence Resonance Energy Transfer (TR-FRET) Binding Assay of NAMPT; conditions: without substrates; 6.8 nM NAMPT, 200 nM probe, 3 hours equilibration
NAMPT (human, recombinant, C-terminally His-tagged), sequence (P43490 whole entry): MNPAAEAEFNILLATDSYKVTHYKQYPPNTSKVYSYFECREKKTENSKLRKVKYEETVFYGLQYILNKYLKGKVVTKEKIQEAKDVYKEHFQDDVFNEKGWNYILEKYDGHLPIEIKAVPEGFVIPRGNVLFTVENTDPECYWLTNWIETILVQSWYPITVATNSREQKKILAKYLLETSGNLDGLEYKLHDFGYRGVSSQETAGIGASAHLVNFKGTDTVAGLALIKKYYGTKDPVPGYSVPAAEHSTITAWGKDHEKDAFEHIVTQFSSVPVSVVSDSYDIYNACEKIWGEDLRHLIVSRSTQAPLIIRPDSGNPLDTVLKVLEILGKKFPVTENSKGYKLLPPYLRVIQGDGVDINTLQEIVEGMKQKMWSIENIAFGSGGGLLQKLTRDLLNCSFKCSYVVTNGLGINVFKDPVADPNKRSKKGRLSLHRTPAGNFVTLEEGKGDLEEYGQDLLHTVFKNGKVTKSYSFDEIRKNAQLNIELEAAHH
Procedure, shortened: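 Probe displacement by compound was measured with 6.8 nM NAMPT, 200 nM Oregon Green 488-conjugated nicotinamide-competitive inhibitor probe and 1 nM Tb-anti-His antibody in 50 mM HEPES pH 7.5, 100 mM NaCl, 10 mM MgCl2, 1 mM DTT, 1% glycerol, 2% DMSO (final). After 3 h at room temperature, TR-FRET was read; IC50 from four-parameter logistic fit.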

NAMPT, sequence (P43490 whole entry): as above

SMILES	IC50 (NAMPT) [nM]	IC50 (PC3 cells) [nM]	IC50 [1] [nM]
O=C(NCc1ccc2nccn2c1)c1ccc(C2=CCN(C(=O)CC3CCCO3)CC2)cc1 (stereo not drawn) [Example 95, N-(imidazo[1,2-a]pyridin-6-ylmethyl)-4-[1-(tetrahydrofuran-2-ylacetyl)-1,2,3,6-tetrahydropyridin-4-yl]benzamide]	0.991	10.6	201
Cc1noc(C)c1C(=O)N1CCC(c2ccc(C(=O)NCc3ccn4ccnc4c3)s2)C1 (stereo not drawn) [Example 797, 5-{1-[(3,5-dimethyl-1,2-oxazol-4-yl)carbonyl]pyrrolidin-3-yl}-N-(imidazo[1,2-a]pyridin-7-ylmethyl)thiophene-2-carboxamide]	0.671	6.98	97.2
Cn1cc(CC(=O)N(CC2CCCO2)c2ncc(C(=O)NCc3ccc4nccn4c3)s2)cn1 (stereo not drawn) [Example 183, N-(imidazo[1,2-a]pyridin-6-ylmethyl)-2-{[(1-methyl-1H-pyrazol-4-yl)acetyl](tetrahydrofuran-2-ylmethyl)amino}-1,3-thiazole-5-carboxamide]	1.8	63	1050
CC(C)OCC(=O)Nc1ccc(C(=O)NCc2ccn3ccnc3c2)cc1 [Example 211, N-(imidazo[1,2-a]pyridin-7-ylmethyl)-4-{[(propan-2-yloxy)acetyl]amino}benzamide]	0.453	950	1660
COc1cc(CCC(=O)N(CC2CCCO2)c2ncc(C(=O)NCc3ccc4nccn4c3)s2)on1 (stereo not drawn) [Example 127, N-(imidazo[1,2-a]pyridin-6-ylmethyl)-2-{[3-(3-methoxy-1,2-oxazol-5-yl)propanoyl](tetrahydrofuran-2-ylmethyl)amino}-1,3-thiazole-5-carboxamide]	0.522	2.34	52.2
O=C(NCc1ccn2ccnc2c1)c1cnc(C2CCN(c3ccccn3)CC2)s1 [Example 697, N-(imidazo[1,2-a]pyridin-7-ylmethyl)-2-[1-(pyridin-2-yl)piperidin-4-yl]-1,3-thiazole-5-carboxamide]	0.802	633	735
O=C(Nc1ccc(C(=O)NCCCN2CCOCC2)cc1)Nc1ccc2nccn2c1 [Example 18, 4-[(imidazo[1,2-a]pyridin-6-ylcarbamoyl)amino]-N-[3-(morpholin-4-yl)propyl]benzamide]	0.418	360	2730
CC(C)Cn1cc(-c2ccc(NC(=O)NCc3ccc4nccn4c3)cc2)cn1 [Example 362, 1-(imidazo[1,2-a]pyridin-6-ylmethyl)-3-{4-[1-(2-methylpropyl)-1H-pyrazol-4-yl]phenyl}urea]	0.256	106	143
O=C(CC1CCCO1)Nc1ccc(NC(=O)NCc2ccc3nccn3c2)cc1 (stereo not drawn) [Example 277, N-(4-{[(imidazo[1,2-a]pyridin-6-ylmethyl)carbamoyl]amino}phenyl)-2-(tetrahydrofuran-2-yl)acetamide]	0.667	83.2	103
O=C(NCc1ccn2ccnc2c1)Nc1ccc(O[C@@H]2CCN(C(=O)c3ccc(Cl)cc3)C2)cc1 [Example 696, 1-(4-{[(3R)-1-(4-chlorobenzoyl)pyrrolidin-3-yl]oxy}phenyl)-3-(imidazo[1,2-a]pyridin-7-ylmethyl)urea]	0.725	667	272
COCC(C)C(=O)N1CCC(Oc2ccc(C(=O)NCc3ccc4nccn4c3)cc2)CC1 (stereo not drawn) [Example 169, N-(imidazo[1,2-a]pyridin-6-ylmethyl)-4-{[1-(3-methoxy-2-methylpropanoyl)piperidin-4-yl]oxy}benzamide]	4.25	26.9	375
Cn1cc(CC(=O)N(C[C@H]2CCCO2)c2ncc(C(=O)NCc3ccn4ccnc4c3)s2)cn1 [Example 202, N-(imidazo[1,2-a]pyridin-7-ylmethyl)-2-{[(1-methyl-1H-pyrazol-4-yl)acetyl][(2R)-tetrahydrofuran-2-ylmethyl]amino}-1,3-thiazole-5-carboxamide]	0.355	4.88	216
O=C(NCc1ccn2ccnc2c1)c1ccc(C2CCN(C(=O)[C@@H]3CCOC3)CC2)cc1 [Example 309, N-(imidazo[1,2-a]pyridin-7-ylmethyl)-4-{1-[(3R)-tetrahydrofuran-3-ylcarbonyl]piperidin-4-yl}benzamide]	0.169	54.8	117
O=C(CCC1CCCC1)Nc1ccc(NC(=O)NCc2ccc3nccn3c2)cc1 [Example 275, 3-cyclopentyl-N-(4-{[(imidazo[1,2-a]pyridin-6-ylmethyl)carbamoyl]amino}phenyl)propanamide]	0.43	23.9	12.3
O=C(NCc1ccn2ccnc2c1)c1ccc(C2CCN(C(=O)c3cccc(Cl)c3)CC2)cc1 [Example 527, 4-[1-(3-chlorobenzoyl)piperidin-4-yl]-N-(imidazo[1,2-a]pyridin-7-ylmethyl)benzamide]	0.265	59.8	141
CC(C)(O)C(=O)N1CCC(c2ccc(C(=O)NCc3ccn4ccnc4c3)cc2)C1 (stereo not drawn) [Example 372, 4-[1-(2-hydroxy-2-methylpropanoyl)pyrrolidin-3-yl]-N-(imidazo[1,2-a]pyridin-7-ylmethyl)benzamide]	0.46	868	2440
CC(=O)N1CCC(c2ccc(NC(=O)NCc3ccn4ccnc4c3)cc2)C1 (stereo not drawn) [Example 379, 1-[4-(1-acetylpyrrolidin-3-yl)phenyl]-3-(imidazo[1,2-a]pyridin-7-ylmethyl)urea]	0.29	370	279
CC(C)N1CCN(c2ncc(C(=O)NCc3ccn4ccnc4c3)s2)CC1 [Example 356, N-(imidazo[1,2-a]pyridin-7-ylmethyl)-2-[4-(propan-2-yl)piperazin-1-yl]-1,3-thiazole-5-carboxamide]	0.169	1020	> 10000
N#Cc1cccc(C(=O)N2CCC(c3ccc(C(=O)NCc4ccn5ccnc5c4)cc3)CC2)c1 [Example 521, 4-[1-(3-cyanobenzoyl)piperidin-4-yl]-N-(imidazo[1,2-a]pyridin-7-ylmethyl)benzamide]	0.292	93.5	413
O=C(NCc1ccn2ccnc2c1)Nc1ccc(C2CCN(C(=O)CC(F)(F)F)CC2)cc1 [Example 713, 1-(imidazo[1,2-a]pyridin-7-ylmethyl)-3-{4-[1-(3,3,3-trifluoropropanoyl)piperidin-4-yl]phenyl}urea]	0.689	2.86	44.3
O=C(NCc1ccn2ccnc2c1)c1ccc(C2CN(C(=O)c3cnccn3)C2)cc1 [Example 635, N-(imidazo[1,2-a]pyridin-7-ylmethyl)-4-[1-(pyrazin-2-ylcarbonyl)azetidin-3-yl]benzamide]	0.975	50	462
O=C(NCCCCC1CCN(C(=O)CN2CCOCC2)CC1)Nc1ccc2nccn2c1 [Example 71, 1-imidazo[1,2-a]pyridin-6-yl-3-{4-[1-(morpholin-4-ylacetyl)piperidin-4-yl]butyl}urea]	0.348	66.7	754
COCCC(=O)N(C[C@H]1CCCO1)c1ncc(C(=O)NCc2ccc3nccn3c2)s1 [Example 145, N-(imidazo[1,2-a]pyridin-6-ylmethyl)-2-{(3-methoxypropanoyl)[(2R)-tetrahydrofuran-2-ylmethyl]amino}-1,3-thiazole-5-carboxamide]	1.08	6.01	191
CC(C)(C)OC(=O)N1CCC(Oc2ccc(C(=O)NCc3ccc4nccn4c3)cc2)CC1 [Example 114, tert-butyl 4-{4-[(imidazo[1,2-a]pyridin-6-ylmethyl)carbamoyl]phenoxy}piperidine-1-carboxylate]	1.11	142	818
CC(C)CS(=O)(=O)N1CC=C(c2ccc(C(=O)NCc3ccn4ccnc4c3)o2)CC1 [Example 753, N-(imidazo[1,2-a]pyridin-7-ylmethyl)-5-{1-[(2-methylpropyl)sulfonyl]-1,2,3,6-tetrahydropyridin-4-yl}furan-2-carboxamide]	0.783	74.6	403
CC(C)OCC(=O)Nc1ccc(NC(=O)NCc2ccn3ccnc3c2)cc1 [Example 282, N-(4-{[(imidazo[1,2-a]pyridin-7-ylmethyl)carbamoyl]amino}phenyl)-2-(propan-2-yloxy)acetamide]	0.297	44.7	76.5
O=C(NCc1ccn2ccnc2c1)c1ccc(C2CCN(C(=O)c3ccccc3Cl)CC2)cc1 [Example 699, 4-[1-(2-chlorobenzoyl)piperidin-4-yl]-N-(imidazo[1,2-a]pyridin-7-ylmethyl)benzamide]	0.721	5.27	41.1
O=C(NCc1ccn2ccnc2c1)c1ccc(C2CCN(C(=O)C3CC3)C2)s1 (stereo not drawn) [Example 717, 5-[1-(cyclopropylcarbonyl)pyrrolidin-3-yl]-N-(imidazo[1,2-a]pyridin-7-ylmethyl)thiophene-2-carboxamide]	0.428	72.4	186
